Assay results as given in US6319910A, “Method for inhibiting cyclooxygenase-2 and tumor necrosis factor alpha” (Hospital for Joint Diseases, priority 1998, dated 2001).
“Also recorded” adds a separate entry of the source. Like-named read-outs stand apart in the source and are kept apart here.

Legend:
OA-affected cartilage [1] = experiment: Spontaneous PGE2 release by OA-affected cartilage (ex vivo organ culture); format: cell-based, human; settings: for Effect on PGE2 production: human OA-affected cartilage, words
Description: (§1) Human osteoarthritis affected cartilage spontaneously release nitric oxide (NO) and PGE2 in the medium as previously reported (Amin et al, 1995a; 1997a). The OA-organ cultures were set up as described (Amin et al, 1995a; 1997a). Briefly, total knee articular cartilage from tibial plateau and femoral condyle were harvested from OA-affected patients. The cartilage was mixed and cut into 3-mm discs and 4-6 discs were placed in triplicate or quadruplicate, in a 24-well plate in 2.0 ml of Ham's F-12 medium supplemented with 0.2% endotoxin free human albumin, 10 mM Hepes pH 7.4 and antibiotics in the presence of various modulators, as previously described (Amin et al, 1995a; 1997a). CMT-8 was used at pharmacologically relevant concentrations in DMSO (<0.01% final concentration) as carrier. An equivalent amount of DMSO was also added in the control cultures.
(§2) The p value between control and CMT-8 treated values for PGE2≤0.1 (insignificant) whereas the p values between NMMA treated cartilage and CMT-8 treated cartilage was ≤0.001 (significant). The data are represented as mean±SD as examined by T test when n=3. Data represent±SD value as determined by Student's t test n=4. The P values described are compared with control unstimulated OA-cartilage. The data represents one of the two similar experiments. P values for PGE2 and Nitrite=^a≤0.5; ^b≤0.1; ^c≤0.05; ^d≤0.01.

RAW 264.7 cells [2] = experiment: Nitrite (NO) production/accumulation in LPS-stimulated RAW 264.7 cells; format: cell-based, murine; settings: LPS 100 ng/ml, 16 hours
Description: (§3) Murine macrophages (RAW 263.7 cells) which were grown in Dulbecco's modified eagle medium (DMEM) containing 10% fetal bovine serum, 2 mM glutamine, 50 U/ml penicillin and 50 μg/ml streptomycin, were stimulated with 100 ng/ml LPS to induce both NOS and COX-2 at 16 hr. […] The data presented in FIG. 1 represents mean±SD as examined by T test were n=3.
(§4) The effects of CMTs 1, 2, 3, 5 and 8 on PGE2 and NO accumulation in RAW 264.7 cells were further evaluated as described above for CMT-3. […]

RAW 264.7 cells [3] = experiment: PGE2 production/accumulation in LPS-stimulated RAW 264.7 cells; format: cell-based, murine; settings: for activation at 40 µg/mL: Mus musculus, RAW264.7, 16 h, printed in parentheses = increase
Description: as §3, §4

COX-2 [4] = experiment: COX-2 expression in cells/cartilage (general statement); format: cell-based; settings: words
OA-affected cartilage [5] = experiment: Spontaneous nitrite/nitric oxide release by OA-affected cartilage (ex vivo organ culture); format: cell-based, human; settings: for Effect on NO production: human OA-affected cartilage, words
Description: as §1, §2

TNFα = TNFα release in the medium by HEK 293 cells permanently transfected with human proTNFα (ELISA); format: cell-based; settings: words; for Effect on spontaneous TNFα release: FIG. 8, 16 hours
Description: HEK 293 cells were transfected with the proTNFα cDNA (wild) to prepare a stable cell line. […] A mutant form of proTNFα cDNA which could not be cleaved by the endogenous TNFα convertase (TACE) to release soluble TNFα was also transfected in separate human HEK 293 cells. The soluble TNFα was estimated by ELISA from the wild type and mutant transfected cells from the medium (FIG. 6).
HEK 293 cells were grown as previously described by American Type Culture Collection (ATCC). […] The HEK 293 cells were incubated with CMT-3 to examine the effects of CMT-3 on TNFα release in the medium.
HEK 293 cells were grown under the conditions previously described by ATCC. Various compounds, including CMT-3 and doxycycline/minocyclines were incubated with proTNFα transfected HEK 293 cells releasing TNFα in the medium at 16 hours. […] Soluble TNFα was estimated by ELISA from the medium.

arthritis = settings: mild and moderate arthritis; Tilley et al, 1995; words; cited from earlier work
OA-affected cartilage [6] = settings: Amin et al, 1997a; words; cited from earlier work
bovine chondrocytes [7] = experiment: Nitrite (NO) production in LPS stimulated bovine chondrocytes; format: cell-based; settings: FIGS. 3 and 9; LPS 100 μg/ml; words
OA-affected cartilage [8] = settings: Amin et al, 1997a; words; cited from earlier work; remark: listed apart in the source
bovine chondrocytes [9] = experiment: PGE2 production in LPS stimulated bovine chondrocytes (radioimmunoassay); format: cell-based; settings: FIGS. 3 and 9, words; for Effect on PGE2 production: LPS 100 μg/ml, 72 hrs
Description: After 48 hours the medium was changed and the cells were incubated with CMT-3 or N-monomethyl arginine (NMMA) for 2 hours before stimulating them with 100 μg/ml LPS. DMSO was used as a carrier for the modulators and the DMSO concentration was maintained (<0.01% v/v) in the cultures. Equivalent amounts of DMSO was also added to the control cultures. The levels of COX-2 dependent PGE2 release was assayed after 72 hrs by radioimmunoassay. […] The data represents mean±SD which was evaluated by T test where n=3.

NOS = settings: background; words; cited from earlier work
OA = settings: prophylactic administration; Yu et al (1992); words; cited from earlier work
COX-2 [10] = molecular target: T1, COX-2 (Mus musculus, UniProt Q05769); experiment: COX-2 specific activity in cell-free extracts of LPS-stimulated RAW 264.7 cells (PGE2 by RIA); format: biochemical, murine
T1 construct: using total unfractionated cell extracts; endogenous in cells; host or cells: RAW 264.7 cells, LPS-induced; cell-free extract
T1 sequence (Q05769 18-604): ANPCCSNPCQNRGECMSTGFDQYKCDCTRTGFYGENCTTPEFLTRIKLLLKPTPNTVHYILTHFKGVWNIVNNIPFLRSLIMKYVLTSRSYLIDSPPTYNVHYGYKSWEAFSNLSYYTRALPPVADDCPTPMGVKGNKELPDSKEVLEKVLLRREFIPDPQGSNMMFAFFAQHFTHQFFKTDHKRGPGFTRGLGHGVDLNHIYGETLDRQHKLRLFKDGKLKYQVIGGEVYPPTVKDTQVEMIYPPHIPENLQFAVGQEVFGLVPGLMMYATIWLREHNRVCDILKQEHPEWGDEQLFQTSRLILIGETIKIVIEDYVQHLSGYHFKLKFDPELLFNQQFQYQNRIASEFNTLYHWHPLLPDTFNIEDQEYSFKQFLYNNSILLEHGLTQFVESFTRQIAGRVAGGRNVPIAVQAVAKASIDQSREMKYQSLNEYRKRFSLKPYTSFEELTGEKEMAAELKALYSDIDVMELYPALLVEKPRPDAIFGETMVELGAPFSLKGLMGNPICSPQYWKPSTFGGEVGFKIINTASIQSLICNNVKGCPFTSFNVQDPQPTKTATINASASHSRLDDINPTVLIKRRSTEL
Description: Raw 264.7 cells were stimulated with LPS and cell-free extracts were prepared as follows. RAW 264.7 cells were induced with LPS (100 ng/ml) in the presence or absence of tetracyclines or hydrocortisone for 14-20 hours. Following induction, the cells were pelleted at 4° C. and resuspended in Tris buffer: 10 mM, pH 7.4 containing 10 μg/ml each of chymostatin, antipain, leupeptin and pepstatin, 1 mM DDT and 1 mM PMSF. Cells were lysed in a Polytron PA 1200 homogenizer (Kinematica AG, Switzerland) with the cocktail of protease inhibitors after 3 cycles of rapid freeze-thawing. The lysate was centrifuged at 18,000 at 4° C. in an eppendorf centrifuge, and the resulting supernatant was used as cell-free extracts. The protein was measured by BCA assay reagent (Pierce, Rockford, Ill.) using BSA as standard. […] The specific enzyme activity was defined as ng of PGE2 released/mg protein/37° C. for 20 minutes.
RAW 264.7 cells were stimulated with 1 μg/ml of LPS for 16 hours and cell-free extracts were prepared as described above. The extracts were incubated with different modulators for 20 minutes at 37° C. before adding the substrate to initiate the enzyme reaction, which was terminated after 30 minutes by heat inactivation. The data represent one of the two experiments, the PGE2 analysis from each sample was done in triplicates n=3. The p value is a comparison between control and experimentals.

[11] = words; cited from earlier work
iNOS mRNA = settings: Amin et al, 1997b; words; cited from earlier work

## CN(C)c1ccc(O)c2c1C[C@H]1C[C@H]3[C@H](N(C)C)C(O)=C(C(N)=O)C(=O)[C@@]3(O)C(O)=C1C2=O [Minocycline, minocycline, reference compound]
OA-affected cartilage [1]; Table 2, minocycline 10 μg/ml
  PGE2: 314.6 ± 58.4 ng/mL
OA-affected cartilage [1]
  Effect on PGE2 production: stimulates PGE2 production
OA-affected cartilage [1]; listed as minocycline
  Effect on PGE2 production: up-regulate COX-2 expression and PGE2 production
RAW 264.7 cells [2]; Experiment I, minocycline 40 μg/ml
  Nitrite: 4.8 µM
RAW 264.7 cells [2]; Experiment II, minocycline 40 μg/ml
  Nitrite: 12.9 µM
RAW 264.7 cells [2]; Mus musculus, RAW264.7, 16 h, read-out: Nitrite % Inhibition, Experiment I, minocycline 40 μg/ml
  inhibition at 40 µg/mL: 90%
RAW 264.7 cells [2]; Mus musculus, RAW264.7, 16 h, read-out: Nitrite % Inhibition, Experiment II, minocycline 40 μg/ml
  inhibition at 40 µg/mL: 41%
RAW 264.7 cells [3]; Experiment I, LPS 100 ng/ml, minocycline 40 μg/ml, 16 hours
  PGE2 accumulation: 43.7 ± 8.6 ng/mL
RAW 264.7 cells [3]; Experiment II, LPS 100 ng/ml, minocycline 40 μg/ml, 16 hours
  PGE2 accumulation: 49.1 ± 10.0 ng/mL
RAW 264.7 cells [3]; read-out: PGE2 % (Increase), Experiment I, LPS 100 ng/ml, minocycline 40 μg/ml
  activation at 40 µg/mL: 172%
RAW 264.7 cells [3]; read-out: PGE2 % (Increase), Experiment II, LPS 100 ng/ml, minocycline 40 μg/ml
  activation at 40 µg/mL: 257%
COX-2 [4]
  Effect on COX-2 expression: up-regulate COX-2 expression and PGE2 production
OA-affected cartilage [5]; Homo sapiens, Table 2, minocycline 10 μg/ml
  inhibition at 10 µg/mL: 30%
OA-affected cartilage [5]; Table 2, minocycline 10 μg/ml
  Nitrite: 66.0 ± 17.0 µM
OA-affected cartilage [5]; listed as minocycline
  Effect on NO production: suppresses NO production; also recorded: inhibit NO production
TNFα
  Effect on spontaneous TNFα release: inhibit TNFα release
arthritis
  Safety and efficacy in arthritis: safe and effective for patients with mild and moderate arthritis

## CN=C(N)NCCC[C@H](N)C(=O)O [L-NMMA, N^G -monomethyl-L-arginine acetate, reference compound]
OA-affected cartilage [6]
  Effect on PGE2 production: augments PGE2 production
RAW 264.7 cells [2]; FIG. 1, words
  Effect on NO production: blocks NO production
Bovine chondrocytes [7]
  Effect on NO production: inhibits NO production
RAW 264.7 cells [3]; FIG. 1, LPS 100 ng/ml, 16 hours, words
  Effect on PGE2 production: augments PGE2 production
OA-affected cartilage [8]
  Effect on NOS and NO production: inhibits NOS and NO production
Bovine chondrocytes [9]
  Effect on PGE2 production: augments PGE2 production
NOS
  Effect on PGE2 production: augmenting PGE2 production
  Effect on production of NO: inhibit the production of NO

## C[C@H]1c2cccc(O)c2C(O)=C2C(=O)[C@]3(O)C(O)=C(C(N)=O)C(=O)[C@@H](N(C)C)[C@@H]3[C@@H](O)[C@@H]21 [Doxycycline, doxycycline, reference compound]
OA-affected cartilage [1]
  Effect on PGE2 production: up-regulate COX-2 expression and PGE2 production
COX-2 [4]
  Effect on COX-2 expression: up-regulate COX-2 expression and PGE2 production
OA-affected cartilage [5]
  Effect on NO production: inhibit NO production
OA
  Severity of OA: markedly reduced the severity of OA
TNFα
  Effect on spontaneous TNFα release: inhibit TNFα release

## C[C@H]1c2cccc(O)c2C(O)=C2C(=O)[C@]3(O)C(O)=C(C(N)=O)C(=O)C[C@@H]3[C@@H](O)[C@@H]21 [CMT-8, 6-α-deoxy-5-hydroxy-4-dedimethylaminotetracycline]
OA-affected cartilage [1]; Homo sapiens, Table 2, 5 μg/ml
  inhibition at 5 µg/mL: 58%
OA-affected cartilage [1]; Table 2, 5 μg/ml
  PGE2: 94.7 ± 39.2 ng/mL
OA-affected cartilage [1]
  Effect on PGE2 production: inhibits PGE2 in a dose dependent manner; also recorded: significantly inhibit; also recorded: inhibited both NO and PGE2 production; also recorded: inhibits COX-2 expression and PGE2 production
RAW 264.7 cells [2]; Experiment I, compound 10 μg/ml
  Nitrite: 36.0 µM
RAW 264.7 cells [2]; Mus musculus, RAW264.7, 16 h, Experiment I, compound 10 μg/ml
  inhibition at 10 µg/mL: 28%
Bovine chondrocytes [7]
  Effect on NO production: inhibit NO and PGE2 production
RAW 264.7 cells [3]; 16 h, 10 ug/mL
  PGE2 accumulation: 27.2 ± 3.4 ng/mL
RAW 264.7 cells [3]; Experiment II, LPS 100 ng/ml, compound 10 μg/ml, 16 hours
  PGE2 accumulation: 24.3 ± 4.5 ng/mL
COX-2 [4]
  Effect on COX-2 expression: inhibits COX-2 expression and PGE2 production
OA-affected cartilage [5]; Homo sapiens, Table 2, 5 μg/ml
  inhibition at 5 µg/mL: 40%
OA-affected cartilage [5]; Table 2, 5 μg/ml
  Nitrite: 47.0 ± 22.0 µM
OA-affected cartilage [5]
  Effect on NO production: inhibits NOS and NO production; also recorded: significantly inhibit; also recorded: inhibited both NO and PGE2 production; also recorded: inhibiting NO production
COX-2 [10]; CMT-3 27 μM, CMT-8 27 μM, aspirin 56 μM, indomethacin 28 μM, words
  Effect on specific activity of COX-2: significantly inhibited the specific activity of COX-2
COX-2 [10]; Table 3, cell-free extracts, 10 μg (aspirin amount not given)
  COX-2 Specific Activity: 4.3 ± 0.1 PGE2 ng/mg protein
[11]
  Antimicrobial activity: no antimicrobial activity
Bovine chondrocytes [9]
  Effect on PGE2 production: inhibit NO and PGE2 production
  Effect on L-NMMA induced PGE2 up-regulation: inhibits the L-NMMA induced PGE2 up-regulation
iNOS mRNA
  Effect on iNOS mRNA expression: inhibiting iNOS mRNA expression
TNFα
  Effect on spontaneous TNFα release: inhibit the spontaneous TNFα release
TNFα; HEK 293 cells transfected with proTNFα cDNA, low levels
  Inhibition of TNFα (summary statement): inhibiting TNFα
